Test results taken from patent EP0774249A2, “Topical composition containing specific flavanones” (UNILEVER PLC, priority 1995, dated 1997).
“Also recorded” adds a separate entry of the source. Where two headings read alike, the source gives them in different places.

Test system: Human Epidermal Keratinocytes
Experiment: Transglutaminase (TG-1) assay, ELISA on cultured keratinocytes
Type: cell-based
Conditions: for Effects on Differentiation (TG-1): after 72 hour incubation; for morphology of the cells / cytotoxic effect on keratinocytes: observation of the cultures; for TG-1 Expressed Day 1 / TG-1 Expressed Day 2: concentrations not given; for TG-1 production DAY 2 / TG-1 production DAY 3 / TG-1 production DAY 1: absorbance OD 490nm; for TG-1 production DAY 2: control 0.134 (Exp. 1), 0.152 (Exp. 2), 0.174 (Exp. 3); for TG-1 production DAY 3: control 0.143 (Exp. 1), 0.200 (Exp. 2), 0.218 (Exp. 3); for TG-1 production DAY 1: control 0.154 (Exp. 1), 0.179 (Exp. 2), 0.181 (Exp. 3); for stimulation of differentiation (TG-1 production) against the control: 10, 25, 50 µg/mL, days 1 to 3 (Table 2); for activity at 10 µg/mL / activity at 25 µg/mL / activity at 50 µg/mL: Homo sapiens, Keratinocyte; for TG-1 expressed on Day 1: single flavanone
[1] = Experiment 1, control 0.17 ± 0.01
[2] = Experiment 1, control 0.21 ± 0.02
[3] = Experiment 2, control 0.16 ± 0.01
[4] = Experiment 2, control 0.20 ± 0.01
[5] = 24 h, 10 µg/mL, read-out: DAY 1 (% over control) (converted)
[6] = 24 h, 25 µg/mL, read-out: DAY 1 (% over control) (converted)
[7] = 24 h, 50 µg/mL, read-out: DAY 1 (% over control) (converted)
[8] = 48 h, 10 µg/mL, read-out: DAY 2 (% over control) (converted)
[9] = 48 h, 25 µg/mL, read-out: DAY 2 (% over control) (converted)
[10] = 48 h, 50 µg/mL, read-out: DAY 2 (% over control) (converted)
[11] = 72 h, 10 µg/mL, read-out: DAY 3 (% over control) (converted)
[12] = 72 h, 25 µg/mL, read-out: DAY 3 (% over control) (converted)
[13] = 72 h, 50 µg/mL, read-out: DAY 3 (% over control) (converted)
[14] = 5μg/mL, control 0.17 (Exp. 1), 0.19 (Exp. 3)
[15] = 10μg/mL, control 0.17 (Exp. 1), 0.19 (Exp. 3)

Structure (SMILES): O=c1cc(-c2ccc(O)cc2)oc2cc(O)cc(O)c12 [Apigenin, reference compound]
- Effects on Differentiation (TG-1) (5 and 15 µg/ml): No effect
- morphology of the cells / cytotoxic effect on keratinocytes (5 and 15 µg/ml): disrupted the cell membranes

Structure (SMILES): CCCCCCCCCCCCC/C=C/C(O)C(CO)NC(C)=O (stereo not shown) [C2-Ceramide (Formula A)]
- TG-1 Expressed Day 1 [1]: 0.15 ± 0.01^1
- TG-1 Expressed Day 2 [2]: 0.23 ± 0.02^3

Structure (SMILES): CCCCCCCCCCCCCCCCN(CC(O)CO)C(C)=O (stereo not shown) [C2-Neoceramide (Formula F)]
- TG-1 Expressed Day 1 [3]: 0.16 ± 0.01
- TG-1 Expressed Day 2 [4]: 0.21 ± 0.02

Structure (SMILES): O=c1cc(-c2ccccc2)oc2cc(O)cc(O)c12 [Chrysin, reference compound]
- Effects on Differentiation (TG-1) (5 and 15 µg/ml): No effect

Structure (SMILES): O=c1ccc2ccccc2o1 [Coumarin, reference compound]
- Effects on Differentiation (TG-1) (5 and 15 µg/ml): No effect

Structure (SMILES): O=c1c(-c2ccc(O)cc2)coc2cc(O)ccc12 [Daidzein, reference compound]
- stimulation or inhibition of differentiation processes, time course study (5 and 15 µg/ml): no effects
- Effects on Differentiation (TG-1) (5 and 15 µg/ml): No effect
- morphology of the cells / cytotoxic effect on keratinocytes (5 and 15 µg/ml): no morphological changes

Structure (SMILES): Oc1cc(O)c2c(c1)O[C@H](c1ccc(O)c(O)c1)[C@H](O)C2 [Epicatechin, reference compound]
- Effects on Differentiation (TG-1) (5 and 15 µg/ml): No effect

Structure (SMILES): O=C1CC(c2ccc(O)c(O)c2)Oc2cc(O)cc(O)c21 (stereo not shown) [Eriodictyol]
- TG-1 production DAY 2 (10 µg/mL): 0.194 ± 0.01
- TG-1 production DAY 3 (10 µg/mL): 0.264 ± 0.03
- TG-1 production DAY 1 (10 µg/mL): 0.178 ± 0.02
- TG-1 production DAY 2 (25 µg/mL): 0.222 ± 0.05
- TG-1 production DAY 3 (25 µg/mL): 0.314 ± 0.07
- TG-1 production DAY 1 (25 µg/mL): 0.211 ± 0.04
- TG-1 production DAY 2 (50 µg/mL): 0.174 ± 0.02
- TG-1 production DAY 3 (50 µg/mL): 0.193 ± 0.05
- TG-1 production DAY 1 (50 µg/mL): 0.186 ± 0.02
- Effects on Differentiation (TG-1) (5 and 15 µg/ml): Increase TG-1
- Effects on Differentiation (TG-1) (5 and 15 µg/ml, listed as eriodictyol): stimulated TG-1 production
- stimulation of differentiation (TG-1 production) against the control: stimulated differentiation to the same extent or higher than the control
- activity at 10 µg/mL [5]: 99%
- activity at 25 µg/mL [6]: 118%
- activity at 50 µg/mL [7]: 104%
- activity at 10 µg/mL [8]: 128%
- activity at 25 µg/mL [9]: 146%
- activity at 50 µg/mL [10]: 115%
- activity at 10 µg/mL [11]: 132%
- activity at 25 µg/mL [12]: 157%
- activity at 50 µg/mL [13]: 97%

Structure (SMILES): O=c1c(O)c(-c2ccc(O)c(O)c2)oc2cc(O)ccc12 [Fisetin, reference compound]
- Effects on Differentiation (TG-1) (5 and 15 µg/ml): No effect

Structure (SMILES): COc1ccc(-c2coc3cc(O)ccc3c2=O)cc1 [Formonoetin, reference compound]
- Effects on Differentiation (TG-1) (5 and 15 µg/ml): No effect

Structure (SMILES): COc1ccc(C2CC(=O)c3c(O)cc(O)cc3O2)cc1O (stereo not shown) [Hesperetin]
- TG-1 expressed on Day 1 [14]: 0.19 ± 0.01 ^1
- TG-1 expressed on Day 1 [15]: 0.19 ± 0.02 ^1
- TG-1 production DAY 2 (10 µg/mL): 0.155 ± 0.01
- TG-1 production DAY 3 (10 µg/mL): 0.190 ± 0.01
- TG-1 production DAY 1 (10 µg/mL): 0.142 ± 0.01
- TG-1 expressed on Day 1 (20μg/mL, control 0.19 (Exp. 2)): 0.20 ± 0.02
- TG-1 production DAY 2 (25 µg/mL): 0.167 ± 0.02
- TG-1 production DAY 3 (25 µg/mL): 0.182 ± 0.01
- TG-1 production DAY 1 (25 µg/mL): 0.148 ± 0.02
- TG-1 expressed on Day 1 (40μg/mL, control 0.19 (Exp. 2)): 0.20 ± 0.01
- TG-1 production DAY 2 (50 µg/mL): 0.213 ± 0.04
- TG-1 production DAY 3 (50 µg/mL): 0.196 ± 0.01
- TG-1 production DAY 1 (50 µg/mL): 0.154 ± 0.04
- Effects on Differentiation (TG-1) (5 and 15 µg/ml): Increase TG-1
- Effects on Differentiation (TG-1) (5 and 15 µg/ml, listed as hesperetin): effective keratinocyte pro-differentiating agents; also recorded: stimulated TG-1 production
- stimulation of differentiation (TG-1 production) against the control: stimulated differentiation to the same extent or higher than the control
- TG-1 Expressed Day 1 [1]: 0.14 ± 0.01^1
- TG-1 Expressed Day 2 [2]: 0.22 ± 0.02
- TG-1 Expressed Day 1 [3]: 0.15 ± 0.01^2
- TG-1 Expressed Day 2 [4]: 0.21 ± 0.02
- activity at 10 µg/mL [5]: 92%
- activity at 25 µg/mL [6]: 96%
- activity at 50 µg/mL [7]: 100%
- activity at 10 µg/mL [8]: 116%
- activity at 25 µg/mL [9]: 125%
- activity at 50 µg/mL [10]: 159%
- activity at 10 µg/mL [11]: 133%
- activity at 25 µg/mL [12]: 127%
- activity at 50 µg/mL [13]: 137%

Structure (SMILES): COc1ccc([C@@H]2CC(=O)c3c(O)cc(O[C@@H]4O[C@H](CO[C@@H]5O[C@@H](C)[C@H](O)[C@@H](O)[C@H]5O)[C@@H](O)[C@H](O)[C@H]4O)cc3O2)cc1O [Hesperidin, reference compound]
- Effects on Differentiation (TG-1) (5 and 15 µg/ml): No effect

Structure (SMILES): O=C1C[C@@H](c2ccc(O)cc2)Oc2cc(O)cc(O)c21 [Naringenin]
- TG-1 expressed on Day 1 [14]: 0.19 ± 0.02
- TG-1 expressed on Day 1 [15]: 0.21 ± 0.01 ^5
- TG-1 production DAY 2 (10 µg/mL): 0.149 ± 0.01
- TG-1 production DAY 3 (10 µg/mL): 0.159 ± 0.01
- TG-1 production DAY 1 (10 µg/mL): 0.147 ± 0.01
- TG-1 production DAY 2 (25 µg/mL): 0.200 ± 0.03
- TG-1 production DAY 3 (25 µg/mL): 0.171 ± 0.02
- TG-1 production DAY 1 (25 µg/mL): 0.207 ± 0.02
- TG-1 production DAY 2 (50 µg/mL): 0.186 ± 0.01
- TG-1 production DAY 3 (50 µg/mL): 0.169 ± 0.01
- TG-1 production DAY 1 (50 µg/mL): 0.156 ± 0.01
- Effects on Differentiation (TG-1) (5 and 15 µg/ml): Increase TG-1
- Effects on Differentiation (TG-1) (5 and 15 µg/ml, listed as naringenin): effective keratinocyte pro-differentiating agents; also recorded: stimulated TG-1 production
- stimulation of differentiation (TG-1 production) against the control: stimulated differentiation to the same extent or higher than the control
- activity at 10 µg/mL [5]: 99%
- activity at 25 µg/mL [6]: 134%
- activity at 50 µg/mL [7]: 101%
- activity at 10 µg/mL [8]: 111%
- activity at 25 µg/mL [9]: 149%
- activity at 50 µg/mL [10]: 139%
- activity at 10 µg/mL [11]: 111%
- activity at 25 µg/mL [12]: 120%
- activity at 50 µg/mL [13]: 118%

Structure (SMILES): CC1OC(OC2C(Oc3cc(O)c4c(c3)OC(c3ccc(O)cc3)CC4=O)OC(CO)C(O)C2O)C(O)C(O)C1O (stereo not shown) [Naringin, reference compound]
- Effects on Differentiation (TG-1) (5 and 15 µg/ml): No effect
- Effects on Differentiation (TG-1) (5 and 15 µg/ml, listed as naringin): not an effective material for promoting the differentiation of keratinocytes

Structure (SMILES): O=c1c(O)c(-c2ccc(O)c(O)c2)oc2cc(O)cc(O)c12 [Quercetin, reference compound]
- Effects on Differentiation (TG-1) (5 and 15 µg/ml): No effect

Structure (SMILES): O=C1c2c(O)cc(O)cc2O[C@H](c2ccc(O)c(O)c2)[C@H]1O [Taxifolin]
- TG-1 production DAY 2 (10 µg/mL): 0.204 ± 0.04
- TG-1 production DAY 3 (10 µg/mL): 0.231 ± 0.03
- TG-1 production DAY 1 (10 µg/mL): 0.153 ± 0.02
- TG-1 production DAY 2 (25 µg/mL): 0.212 ± 0.03
- TG-1 production DAY 3 (25 µg/mL): 0.226 ± 0.02
- TG-1 production DAY 1 (25 µg/mL): 0.175 ± 0.04
- TG-1 production DAY 2 (50 µg/mL): 0.159 ± 0.01
- TG-1 production DAY 3 (50 µg/mL): 0.199 ± 0.04
- TG-1 production DAY 1 (50 µg/mL): 0.150 ± 0.02
- Effects on Differentiation (TG-1) (5 and 15 µg/ml): Increase TG-1
- Effects on Differentiation (TG-1) (5 and 15 µg/ml, listed as taxifolin): stimulated TG-1 production
- stimulation of differentiation (TG-1 production) against the control: stimulated differentiation to the same extent or higher than the control
- activity at 10 µg/mL [5]: 85%
- activity at 25 µg/mL [6]: 97%
- activity at 50 µg/mL [7]: 84%
- activity at 10 µg/mL [8]: 117%
- activity at 25 µg/mL [9]: 122%
- activity at 50 µg/mL [10]: 92%
- activity at 10 µg/mL [11]: 106%
- activity at 25 µg/mL [12]: 104%
- activity at 50 µg/mL [13]: 92%
